Results reported in US20250145594A1, “MODULATORS OF THE INTEGRATED STRESS PATHWAY” (Calico Life Sciences LLC, priority 2020, published 2025).
pEC50: −log10 of the molar value.

System: ATF4 luciferase reporter in HEK293T cells
Test: ATF4-Luc assay (in vitro model of VWMD)
Format: cell-based, human
Conditions: HEK293T cells carrying the ATF4 luciferase reporter, 1 μg/mL tunicamycin, One Glo luminescence
How it was run: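 Stable HEK293T line expressing firefly luciferase behind the human ATF4 5′-UTR, treated with 1 μg/mL tunicamycin plus compound for 7 hours. Luminescence read with One Glo; EC50 determined.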

Cc1ccc(-c2cnn(C34CC(NC(=O)[C@H]5C[C@@H](O)c6cc(C(F)(F)F)ccc6O5)(C3)C4)c2)nc1 [Compound 555, (2R,4R)-4-hydroxy-N-{3-[4-(5-methylpyridin-2-yl)-1H-pyrazol-1-yl]bicyclo[1.1.1]pentan-1-yl}-6-(trifluoromethyl)-3,4-dihydro-2H-1-benzopyran-2-carboxamide]
pEC50 (Homo sapiens, HEK-293T, 7 h): > 8.00

O=C(NC12CC(c3cnc(OCCCOC(F)(F)F)o3)(C1)C2)[C@H]1C[C@@H](O)c2cc(Cl)ccc2O1 [Compound 415, (2R,4R)-6-chloro-4-hydroxy-N-(3-{2-[3-(trifluoromethoxy)propoxy]-1,3-oxazol-5-yl}bicyclo[1.1.1]pentan-1-yl)-3,4-dihydro-2H-1-benzopyran-2-carboxamide]
pEC50 (Homo sapiens, HEK-293T, 7 h): > 8.00

C[Si]1(C)CCN(C(=O)c2cnn(C34CC(NC(=O)[C@H]5C[C@@H](O)c6cc(Cl)ccc6O5)(C3)C4)c2)C1 [Compound 401, (2R,4R)-6-chloro-N-{3-[4-(3,3-dimethyl-1,3-azasilolidine-1-carbonyl)-1H-pyrazol-1-yl]bicyclo[1.1.1]pentan-1-yl}-4-hydroxy-3,4-dihydro-2H-1-benzopyran-2-carboxamide]
pEC50 (Homo sapiens, HEK-293T, 7 h): 6.30 to 6.60

O=C(NC12CC(n3cc(N4CC[C@@H](OC(F)(F)F)C4)cn3)(C1)C2)[C@H]1C[C@@H](O)c2cc(Cl)ccc2O1 [Compound 356, (2R,4R)-6-chloro-4-hydroxy-N-(3-{4-[(3R)-3-(trifluoromethoxy)pyrrolidin-1-yl]-1H-pyrazol-1-yl}bicyclo[1.1.1]pentan-1-yl)-3,4-dihydro-2H-1-benzopyran-2-carboxamide]
pEC50 (Homo sapiens, HEK-293T, 7 h): > 8.00

O=C(NC12CC(n3cc(OCCCC(F)(F)F)cn3)(C1)C2)[C@H]1C[C@H](O)c2cc(C(F)(F)F)c(F)cc2O1 [Compound 642, (2R,4S)-7-fluoro-4-hydroxy-N-{3-[4-(4,4,4-trifluorobutoxy)-1H-pyrazol-1-yl]bicyclo[1.1.1]pentan-1-yl}-6-(trifluoromethyl)-3,4-dihydro-2H-1-benzopyran-2-carboxamide]
pEC50 (Homo sapiens, HEK-293T, 7 h): 7.30 to 8.00

O=C(N[C@H]1CC[C@H](n2cc(OCCOC(F)(F)F)cn2)CC1)[C@H]1C[C@@H](O)c2cc(Cl)c(Cl)cc2O1 [Compound 459, (2R,4R)-6,7-dichloro-4-hydroxy-N-[(1r,4R)-4-{4-[2-(trifluoromethoxy)ethoxy]-1H-pyrazol-1-yl}cyclohexyl]-3,4-dihydro-2H-1-benzopyran-2-carboxamide]
pEC50 (Homo sapiens, HEK-293T, 7 h): > 8.00

O=C(NC12CC(n3cc(-c4cnn(CC(F)(F)F)c4)cn3)(C1)C2)[C@H]1C[C@@H](O)c2cc(Cl)ccc2O1 [Compound 563, (2R,4R)-6-chloro-4-hydroxy-N-{3-[1′-(2,2,2-trifluoroethyl)-1H,1′H-[4,4′-bipyrazol]-1-yl]bicyclo[1.1.1]pentan-1-yl}-3,4-dihydro-2H-1-benzopyran-2-carboxamide]
pEC50 (Homo sapiens, HEK-293T, 7 h): > 8.00

C[C@@H](COc1cnn(C23CC(NC(=O)[C@H]4C[C@@H](O)c5cc(Cl)ccc5O4)(C2)C3)c1)OC(F)(F)F [Compound 443, (2R,4R)-6-chloro-4-hydroxy-N-(3-{4-[(2S)-2-(trifluoromethoxy)propoxy]-1H-pyrazol-1-yl}bicyclo[1.1.1]pentan-1-yl)-3,4-dihydro-2H-1-benzopyran-2-carboxamide]
pEC50 (Homo sapiens, HEK-293T, 7 h): 7.30 to 8.00

CN(CCCOC(F)(F)F)c1cnn(C23CC(NC(=O)[C@H]4C[C@@H](O)c5cc(Cl)ccc5O4)(C2)C3)c1 [Compound 430, (2R,4R)-6-chloro-4-hydroxy-N-[3-(4-{methyl[3-(trifluoromethoxy)propyl]amino}-1H-pyrazol-1-yl)bicyclo[1.1.1]pentan-1-yl]-3,4-dihydro-2H-1-benzopyran-2-carboxamide]
pEC50 (Homo sapiens, HEK-293T, 7 h): 7.30 to 8.00

O=C(NC12CC(c3cc(OCCCOC(F)(F)F)ncn3)(C1)C2)[C@H]1C[C@@H](O)c2cc(Cl)c(F)cc2O1 [Compound 649, (2R,4R)-6-chloro-7-fluoro-4-hydroxy-N-(3-{6-[3-(trifluoromethoxy)propoxy]pyrimidin-4-yl}bicyclo[1.1.1]pentan-1-yl)-3,4-dihydro-2H-1-benzopyran-2-carboxamide]
pEC50 (Homo sapiens, HEK-293T, 7 h): > 8.00

O=C(NC12CC(n3cc(-c4ccc(OC(F)(F)F)cn4)cn3)(C1)C2)[C@H]1C[C@H](O)c2cc(Cl)ccc2O1 [Compound 545, (2R,4S)-6-chloro-4-hydroxy-N-(3-{4-[5-(trifluoromethoxy)pyridin-2-yl]-1H-pyrazol-1-yl}bicyclo[1.1.1]pentan-1-yl)-3,4-dihydro-2H-1-benzopyran-2-carboxamide]
pEC50 (Homo sapiens, HEK-293T, 7 h): > 8.00

O=C(CO[C@H]1C[C@@H](OC(F)(F)F)C1)NC12CC(NC(=O)[C@@H]3CC(O)c4cc(Cl)ccc4O3)(C1)C2 (stereo in doubt) [Compound 295, (2S,4S)-6-chloro-4-hydroxy-N-[3-(2-{[cis-3-(trifluoromethoxy)cyclobutyl]oxy}acetamido)bicyclo[1.1.1]pentan-1-yl]-3,4-dihydro-2H-1-benzopyran-2-carboxamide]
pEC50 (7 hours): 7.30 to 8.00

O=C(NCc1ccc(C(F)(F)F)cn1)[C@H]1C[C@H]2O[C@@H]1CC2NC(=O)[C@H]1C[C@@H](O)c2cc(Cl)ccc2O1 (mixture of isomers) [Compound 313, (2R,4R)-6-chloro-4-hydroxy-N-[(1RS,2SR,4RS,5SR)-5-({[5-(trifluoromethyl)pyridin-2-yl]methyl}carbamoyl)-7-oxabicyclo[2.2.1]heptan-2-yl]-3,4-dihydro-2H-1-benzopyran-2-carboxamide]
pEC50 (Homo sapiens, HEK-293T, 7 h): 6.30 to 6.60

O=C(NC12CC(n3cc(OCCOC(F)(F)F)cn3)(C1)C2)[C@H]1C[C@@H](O)c2cc(F)ccc2O1 [Compound 418, (2R,4R)-6-fluoro-4-hydroxy-N-(3-{4-[2-(trifluoromethoxy)ethoxy]-1H-pyrazol-1-yl}bicyclo[1.1.1]pentan-1-yl)-3,4-dihydro-2H-1-benzopyran-2-carboxamide]
pEC50 (Homo sapiens, HEK-293T, 7 h): 7.30 to 8.00

O=C(NC12CC(n3cc(CCCCOC(F)(F)F)nn3)(C1)C2)[C@H]1C[C@@H](O)c2cc(Cl)c(F)cc2O1 [Compound 466, (2R,4R)-6-chloro-7-fluoro-4-hydroxy-N-(3-{4-[4-(trifluoromethoxy)butyl]-1H-1,2,3-triazol-1-yl}bicyclo[1.1.1]pentan-1-yl)-3,4-dihydro-2H-1-benzopyran-2-carboxamide]
pEC50 (Homo sapiens, HEK-293T, 7 h): > 8.00

O=C(N[C@H]1CC[C@H](n2cc(-c3ccc(C(F)(F)F)cn3)cn2)CC1)[C@H]1C[C@@H](O)c2cc(Cl)c(F)cc2O1 [Compound 578, (2R,4R)-6-chloro-7-fluoro-4-hydroxy-N-[(1r,4R)-4-{4-[5-(trifluoromethyl)pyridin-2-yl]-1H-pyrazol-1-yl}cyclohexyl]-3,4-dihydro-2H-1-benzopyran-2-carboxamide]
pEC50 (Homo sapiens, HEK-293T, 7 h): > 8.00

O=C(NC12CC(n3cc(-c4ccc(OC(F)(F)F)nc4)cn3)(C1)C2)[C@@H]1C[C@@H](O)c2cc(Cl)ccc2O1 [Compound 351, (2S,4R)-6-chloro-4-hydroxy-N-(3-{4-[6-(trifluoromethoxy)pyridin-3-yl]-1H-pyrazol-1-yl}bicyclo[1.1.1]pentan-1-yl)-3,4-dihydro-2H-1-benzopyran-2-carboxamide]
pEC50 (Homo sapiens, HEK-293T, 7 h): > 8.00

O=C(COc1ccc(Cl)c(F)c1)NC12CC(n3cc(OCCOC(F)(F)F)cn3)(C1)C2 [Compound 617, 2-(4-chloro-3-fluorophenoxy)-N-(3-{4-[2-(trifluoromethoxy)ethoxy]-1H-pyrazol-1-yl}bicyclo[1.1.1]pentan-1-yl)acetamide]
pEC50 (7 hours): > 8.00

O=C(CO[C@H]1C[C@@H](OC(F)(F)F)C1)NC12CC(NC(=O)[C@H]3CC(O)c4cc(Cl)ccc4O3)(C1)C2 (single isomer, unassigned) [Compound 293]
pEC50 (Homo sapiens, HEK-293T, 7 h): > 8.00

O=C(CO[C@H]1C[C@@H](OC(F)(F)F)C1)NC12CC(NC(=O)[C@H]3C[C@@H](O)c4cc(Cl)c(F)cc4O3)(C1)C2 [Compound 461, (2R,4R)-6-chloro-7-fluoro-4-hydroxy-N-[3-(2-{[(1s,3S)-3-(trifluoromethoxy)cyclobutyl]oxy}acetamido)bicyclo[1.1.1]pentan-1-yl]-3,4-dihydro-2H-1-benzopyran-2-carboxamide]
pEC50 (Homo sapiens, HEK-293T, 7 h): > 8.00

O=C(NC12CC(n3cc(-c4cnn(CC(F)(F)F)c4)cn3)(C1)C2)[C@H]1C[C@@H](O)c2cc(Cl)c(Cl)cc2O1 [Compound 565, (2R,4R)-6,7-dichloro-4-hydroxy-N-{3-[1′-(2,2,2-trifluoroethyl)-1H,1′H-[4,4′-bipyrazol]-1-yl]bicyclo[1.1.1]pentan-1-yl}-3,4-dihydro-2H-1-benzopyran-2-carboxamide]
pEC50 (Homo sapiens, HEK-293T, 7 h): > 8.00

O=C(NC12CC(c3cn(-c4ccc(Cl)c(F)c4)nn3)(C1)C2)[C@H]1C[C@@H](O)c2cc(Cl)ccc2O1 [Compound 311, (2R,4R)-6-chloro-N-{3-[1-(4-chloro-3-fluorophenyl)-1H-1,2,3-triazol-4-yl]bicyclo[1.1.1]pentan-1-yl}-4-hydroxy-3,4-dihydro-2H-1-benzopyran-2-carboxamide]
pEC50 (Homo sapiens, HEK-293T, 7 h): > 8.00

O=C(NC12CC(c3cnn([C@H]4C[C@@H](OC(F)(F)F)C4)c3)(C1)C2)[C@H]1C[C@@H](O)c2cc(Cl)ccc2O1 [Compound 316, (2R,4R)-6-chloro-4-hydroxy-N-(3-{1-[cis-3-(trifluoromethoxy)cyclobutyl]-1H-pyrazol-4-yl}bicyclo[1.1.1]pentan-1-yl)-3,4-dihydro-2H-1-benzopyran-2-carboxamide]
pEC50 (Homo sapiens, HEK-293T, 7 h): > 8.00

O=C(COc1cc(F)c(Cl)c(Br)c1)N[C@H]1C[C@H]2C[C@@H]1C[C@@H]2NC(=O)CO[C@H]1C[C@@H](OC(F)(F)F)C1 [Compound 381, 2-(3-bromo-4-chloro-5-fluorophenoxy)-N-[(1R,2S,4R,5S)-5-(2-{[cis-3-(trifluoromethoxy)cyclobutyl]oxy}acetamido)bicyclo[2.2.1]heptan-2-yl]acetamide]
pEC50 (Homo sapiens, HEK-293T, 7 h): 7.30 to 8.00

O=C(NC12CC(n3cc(O[C@H]4CC[C@H](OC(F)(F)F)C4)cn3)(C1)C2)[C@H]1C[C@@H](O)c2cc(Cl)ccc2O1 (racemic) [Compound 586, (2R,4R)-6-chloro-4-hydroxy-N-[3-(4-{[(1RS,3RS)-3-(trifluoromethoxy)cyclopentyl]oxy}-1H-pyrazol-1-yl)bicyclo[1.1.1]pentan-1-yl]-3,4-dihydro-2H-1-benzopyran-2-carboxamide]
pEC50 (Homo sapiens, HEK-293T, 7 h): 7.30 to 8.00
